In one data set the test system is MOPC tumors. Nature of the data set: MOPC myeloma tumor growth in vivo. The arrangement: species or system BALB/c mice. Here is the method:
Mice and tumor formation in vivo. Six- to eight-week old female BALB/c mice are obtained from the National Cancer Institute (Frederick, Md.). Cohorts of 3-5 mice per group are used for these experiments. Mice are shaved on the right flank and injected subcutaneously (s.c.) with 5×10^5 of either MOPC or MPC11 cells in […] of PBS to induce tumors.
In vivo treatment with AG-490 and IL-12. When tumors reach about 5 […] in diameter, AG-490 treatment of tumors is initiated and continued daily for 7-10 days. For MOPC tumors, injections of 0.85 mg/day of AG-490 are given intratumorally, supplemented with 0.5 mg/day of AG-490 i.p. For MPC11 tumors, the intratumoral treatment is halved while the i.p. dose remains the same. Control mice receive 50% DMSO vehicle alone in the same volume as the AG-490 treatment group. Recombinant IL-12 is given s.c. at either 100 ng or 200 ng every other day. Tumor growth is monitored daily by measuring two perpendicular tumor diameters with a caliper, and tumor volume was calculated according to the formula V=0.52*a*b(a+b)/2 (a=smallest superficial diameter; b=largest superficial diameter).

Data set [1] deals with myeloma cells with activated STAT3. Nature of the data set: In vitro apoptosis assay of murine myeloma cells. Format: cell-based. Here is the method:
In vitro apoptosis assay. After a 24 hours incubation with LIMEM medium containing […] AG-490, cells are stained with Annexin V-PE and 7-Amino-actinomycin D (PharMingen, San Diego, Calif.). Dual-color fluorescence is measured on a FACScan flow cytometer and analyzed using CellQuest software (Becton Dickinson, Mountain View, Calif.).

A further data set concerns peritoneal macrophages. Nature of the data set: IL-12-mediated nitric oxide production by macrophages treated in vitro. Format: cell-based, mice. Particulars: in vitro treatment of macrophages, 50 mM AG-490. Here is the method:
Nitric oxide production. Peritoneal macrophages (2×10^5/0.2 ml/well) from mice with various treatments are incubated 48 hours. Nitrite accumulation in macrophage supernatants were determined using Griess reagent.
In vitro IL-12 activation and AG-490 treatment of macrophages. Peritoneal macrophages (2×10^5/well) are incubated in medium supplemented with either PBS, or rIL-12 (2 ng/ml), or AG-490 ([…]). Forty-eight hours later, the cultures are renewed by addition of fresh medium with either AG-490 or rIL-12 or PBS. Activation of macrophages is determined by nitric oxide production. Macrophage viability is determined by cleavage of tetrazolium salt in an MTT assay.

On the set-up of data set [2]: species or system mice. Particulars: mouse, in vivo. Here is the method: FIG. 7: AG490 Blocks Tumorigenicity of Breast Carcinoma Cells. Nude mice are engrafted with MDA-MB-468 tumor cells, and then treated with AG490 by mini-pump infusion (42 mpk) and daily intraperitoneal injections (50 mpk).
AG490 is administered by continuous infusion using subcutaneous mini-pumps supplemented with intraperitoneal injections.

A further data set has as its system U266 cells. Nature of the data set: Fas-mediated apoptosis (Annexin V, flow cytometry) in U266 cells. The class given is cell-based, human. Here is the method:
For surface detection of the Fas receptor, 10^6 cells are suspended in […] PBS with 2.5 mg/ml mouse IgM (Sigma) and […] UB2 antibody (MBL) or IgG1, isotype control serum (Dako). Following 30 min incubation at room temperature, cells are washed with PBS, and incubated in the dark for 30 min with goat anti-mouse Ig-FITC. Fluorescence is measured on a FACScan flow cytometer and analyzed using CellQuest software (Becton Dickinson). For cell cycle analysis, 10^6 cells are fixed in ice-cold ethanol for a minimum of 2 h, washed with PBS, and stained with 5 mg/ml propidium iodide (PI) and […] at 37° C. for 30 min prior to analysis by flow cytometry. […] Apoptosis is measured by staining with Annexin V-FITC (Clontech) and flow cytometry analysis. Fas-specific death is calculated as (% Annexin V positive cells in the CH-11 treated population)−(% Annexin V positive cells in the IgM control population). Programmed cell death in cells transfected with the bicistronic green fluorescent protein vectors (pIRES-EGFP or pIRES-Stat3b) is analyzed after staining with Annexin V-PE (Pharmingen) by two color flow cytometry analysis. Apoptotic morphology of DAPI-stained nuclei and green/red fluorescence is confirmed by fluorescence microscopy.
For orientation: A flow cytometer gives signals particle by particle.

For the molecule `N#C/C(=C\c1ccc(O)c(O)c1)C(=O)NCc1ccccc1` [AG490], in the data set with MOPC tumors (5-mm pre-existing MOPC tumors, AG-490 0.85 mg/day intratumorally plus 0.5 mg/day i.p.), the “time to complete regression of all treated tumors” value was in the range of 3 to 8 days. Further, in the data set with MOPC tumors (MOPC tumors, AG-490 treated mice), the “tumor regrowth after regression” value is “tumor regrowth is observed in all of the AG-490 treated mice except for one”. The “apoptosis of myeloma cells” value in data set [1] is given as “efficient apoptosis”. Further, in the data set on peritoneal macrophages, the “IL-12-mediated nitric oxide production” value was “prevents or suppressed”. In data set [2], the toxicity in animals entry is on record as “not detectably toxic”. In addition, the Fas-specific apoptosis in the data set with U266 cells (AG490 24 hours then CH-11 12 hours, 7 independent experiments) is recorded as 18-41%. Also, the cells undergoing apoptosis result in the data set with U266 cells (AG490 24 hours then CH-11 additional 12 hours) is “up to 90%”.

The values are drawn from patent US9345682B2, “Inhibition of STAT3 signal transduction for human cancer therapy” (University of South Florida, priority 1999, dated 2016).
